# Data reported in patent US20240408086A1, “USE OF LUVADAXISTAT FOR THE TREATMENT OF COGNITIVE IMPAIRMENT” (TAKEDA PHARMACEUTICAL COMPANY LIMITED, priority 2021, published 2024).
# Where two headings read alike, the source gives them in different places.
# Legend:
# Mouse = assay: Eyeblink conditioning (ataxia and schizophrenia), 10-day QD; format: in vivo; design: key: a + sign means efficacious; a − sign means not efficacious; conditions: 10-Day Once Daily (QD)
# Text: (§1) In Table 1, a + sign means efficacious, a − sign means not efficacious, and an empty cell indicates a dose was not tested.
# [1] = tested on: adult patients with persistent negative symptoms of schizophrenia; format: in vivo, human; conditions: for PANSS NSFS, LS mean change from baseline to Week 12: placebo −3.1
# Text: Compound (I) was orally administered in the form of a tablet once daily for up to 14 weeks. Compound (I) placebo-matching tablets were similarly orally administered once daily for up to 14 weeks. The treatment group remained undisclosed to the participant and study doctor/site personnel during the study unless there was an urgent medical need.
# The primary endpoint evaluated was the change in negative symptoms, measured as the 12-week change from baseline in the Positive and Negative Syndrome Scale-Negative Symptom Factor Score (PANSS NSFS).
# [2] = tested on: adult patients with persistent negative symptoms of schizophrenia; format: in vivo, human; conditions: 50 mg, 125 mg, 500 mg once daily
# Rat = assay: Attention set-shifting task (ASST) (executive function); format: in vivo; design: key: a + sign means efficacious; a − sign means not efficacious; conditions: for Attention set-shifting task (ASST) (executive function): 14-Day Once Daily (QD); for ASST (executive function): Single Dose
# Text: as §1
# [3] = tested on: adult patients with persistent negative symptoms of schizophrenia
# Description: Additionally, eligible participants were receiving stable antipsychotic treatment at a 2-6 mg daily dose of risperidone equivalents, and were allowed to be treated with a second antipsychotic if it was used as a hypnotic at a subtherapeutic dose (subject to sponsor approval). […] To overcome potential confounding effects, those with depressive and extrapyramidal symptoms were excluded.
# Dose selection for this study was based on target occupancy and elevation of D-serine.
# The study comprised a 28-day screening period, a 14-day single-blinded placebo run-in period to prospectively evaluate drug adherence and BNSS score stability, and a 12-week double-blinded treatment period (FIG. 5). […] Demographics, baseline characteristics, and efficacy assessments were based on the full analysis set, which included randomized participants who received at least one dose of the study drug during the treatment period (Table 6). The safety analysis set included randomized participants who received at least one dose of the study drug.
# Safety endpoints included assessment of treatment-emergent adverse events (TEAEs).
# [4] = tested on: patients with schizophrenia; assay: Phase 1b crossover study: auditory steady state response (ASSR) gamma band power; format: in vivo, human
# Text: (§2) NCT03359785 was a randomized, double-blind, placebo-controlled cross-over Phase 1b clinical trial in schizophrenia patients at a single site to evaluate PD effects, safety, tolerability, and pharmacokinetics of multiple oral doses of Compound (I). The objective of the study was to assess pharmacodynamic (PD) biomarkers of Compound (I) on measures related to cerebellar circuitry function and NMDA pharmacology that are known to be affected in schizophrenia.
# Evoked potentials in the electroencephalogram were also tested to assess the impact of multiple oral doses of Compound (I) on NMDA-sensitive physiological responses that are affected in schizophrenia. Specifically, mismatch negativity (MMN), auditory steady state response (ASSR), and P300 were measured at baseline and following 8 days of treatment in both periods.
# ASSR are evoked oscillatory responses that are entrained to the frequency and phase of temporally modulated stimuli. Individuals with schizophrenia experience subjective sensory anomalies and objective deficits on assessment of sensory function. These deficits can be produced by abnormal signaling in the sensory pathways and sensory cortex or by later-stage disturbances in the cognitive processing of such inputs. ASSR can be used to assess the integrity of sensory pathways including cortical processing. ASSR was measured at midline central electrode (Cz) of EEG.
# All endpoints were analyzed as change from baseline compared to placebo within the same subjects. Statistical comparisons were conducted with an ANOVA model, with treatment sequence, period, and treatment as fixed effects, and subject as a random effect. As a supplementary analysis, an analysis of covariance model (ANCOVA) was applied to the primary endpoint with (period) baseline as a covariate, treatment sequence, period, treatment effect and baseline-by-treatment as fixed effects, and subject as a random effect.
# [5] = tested on: patients with schizophrenia; assay: Phase 1b crossover study: eye-blink conditioning (EBC); format: in vivo, human
# Text: as §2
# The primary endpoint was the average percentage of conditioned responses during the eye-blink conditioning (EBC) test at day 8 of each treatment period (FIG. 10). EBC was used to assess the impact of Compound (I) on cerebellar circuitry function. EBC is a highly conserved reflex that is dependent on cerebellar circuitry, with NMDA receptors playing a key role. EBC is impaired in patients with schizophrenia compared with healthy controls.
# All endpoints were analyzed as change from baseline compared to placebo within the same subjects. Statistical comparisons were conducted with an ANOVA model, with treatment sequence, period, and treatment as fixed effects, and subject as a random effect. […]
# [6] = 50 mg once daily, count (%) of N = 58
# [7] = 125 mg once daily, count (%) of N = 56
# [8] = 500 mg once daily, count (%) of N = 55
compound,measurement,setting,value
"O=c1[nH]nc(CCc2ccc(C(F)(F)F)cc2)cc1O [Compound (I), luvadaxistat]",Eyeblink conditioning (ataxia and schizophrenia),Mouse; 0.1 mg/kg,+
same,Eyeblink conditioning (ataxia and schizophrenia),Mouse; 1 mg/kg,+
same,"PANSS NSFS, LS mean change from baseline to Week 12","[1]; 50 mg once daily, p=0.426 vs placebo",−3.3
same,Improvement in PANSS NSFS versus placebo,"[1]; 50 mg, 125 mg, or 500 mg at Week 12",no significant improvements
same,"PANSS NSFS, LS mean change from baseline to Week 12","[1]; 125 mg once daily, p=0.362 vs placebo",−3.4
same,"PANSS NSFS, LS mean change from baseline to Week 12","[1]; 500 mg once daily, p=0.808 vs placebo",−2.5
same,Negative symptoms as measured with the BNSS,[2],no significant improvements
same,Attention set-shifting task (ASST) (executive function),Rat; 0.1 mg/kg,+
same,Attention set-shifting task (ASST) (executive function),Rat; 1 mg/kg,+
same,Attention set-shifting task (ASST) (executive function),Rat; 10 mg/kg,+
same,ASST (executive function),Rat; 3 mg/kg,+
same,ASST (executive function),Rat; 10 mg/kg,+
same,ASST (executive function),Rat; 30 mg/kg,+
same,Frequent TEAEs: Headache,[3]; [6],0
same,Frequent TEAEs: Increased weight,[3]; [6],2 (3.4)
same,Frequent TEAEs: Insomnia,[3]; [6],0
same,Patients with Mild TEAEs,[3]; [6],10 (17.2)
same,Patients with Moderate TEAEs,[3]; [6],2 (3.4)
same,Patients with Severe TEAEs,[3]; [6],1 (1.7)
same,Patients with any TEAEs,[3]; [6],13 (22.4)
same,Serious adverse events,[3]; [6],0
same,TEAEs leading to study discontinuation,[3]; [6],0
same,TEAEs related to study drug,[3]; [6],0
same,Deaths,"[3]; 50 mg once daily, count of N = 58",0
same,"Severe event of chronic cholecystitis, number of participants","[3]; 50 mg once daily, not considered drug related",1
same,"Severe schizophrenia (drug-related serious TEAE), number of participants",[3]; 125 mg once daily,one
same,Frequent TEAEs: Headache,[3]; [7],5 (8.9)
same,Frequent TEAEs: Increased weight,[3]; [7],0
same,Frequent TEAEs: Insomnia,[3]; [7],2 (3.6)
same,Patients with Mild TEAEs,[3]; [7],13 (23.2)
same,Patients with Moderate TEAEs,[3]; [7],3 (5.4)
same,Patients with Severe TEAEs,[3]; [7],1 (1.8)
same,Patients with any TEAEs,[3]; [7],17 (30.4)
same,Serious adverse events,[3]; [7],1 (1.8)
same,TEAEs leading to study discontinuation,[3]; [7],1 (1.8)
same,TEAEs related to study drug,[3]; [7],4 (7.1)
same,Deaths,"[3]; 125 mg once daily, count of N = 56",0
same,Frequent TEAEs: Headache,[3]; [8],2 (3.6)
same,Frequent TEAEs: Increased weight,[3]; [8],0
same,Frequent TEAEs: Insomnia,[3]; [8],2 (3.6)
same,Patients with Mild TEAEs,[3]; [8],8 (14.5)
same,Patients with Moderate TEAEs,[3]; [8],8 (14.5)
same,Patients with Severe TEAEs,[3]; [8],0
same,Patients with any TEAEs,[3]; [8],16 (29.1)
same,Serious adverse events,[3]; [8],0
same,TEAEs leading to study discontinuation,[3]; [8],1 (1.8)
same,TEAEs related to study drug,[3]; [8],7 (12.7)
same,Deaths,"[3]; 500 mg once daily, count of N = 55",0
same,"ASSR gamma power, effect size vs placebo",[4]; 50 mg for 8 days,0.575
same,"ASSR gamma power, change from baseline","[4]; 50 mg for 8 days, placebo −16.282, p=0.056",2.135
same,"ASSR gamma power, effect size vs placebo",[4]; 500 mg for 8 days,0.003
same,"ASSR gamma power, change from baseline","[4]; 500 mg for 8 days, placebo 9.203, p=0.495",9.411
same,"EBC change from baseline, effect size vs placebo (ANCOVA)","[5]; 50 mg for 8 days, p=0.109",0.246
same,"EBC change from baseline, effect size vs placebo (ANCOVA)","[5]; 500 mg for 8 days, p=0.777",−0.198
